Earlier results, collected in patent US20220273802A1, “METHODS FOR IMPROVED DELIVERY OF AMINOTHIOLS, DIMERS OF AMINOTHIOLS, AND HETERODIMERS COMPOSED OF AMINOTHIOLS” (THE BURLINGTON HC RESEARCH GROUP, INC., priority 2012, published 2022).

Assays:
[1] = test system: mouse L cells; details: for radioprotective effect upon mouse L cells in culture: compound alone, without dephosphorylation
[2] = test system: V79 cells; details: for activity if present outside of V79 cells: compound present outside of cells
[3] = test system: HIV
[4] = test system: influenza virus A and B
[5] = test system: three species of adenovirus
[6] = test system: SIV; details: later studies

| Structure (SMILES) | radioprotective effect upon mouse L cells in culture [1] | radioprotective activity ([1]; incubated with mouse liver homogenate (active alkaline phosphatase)) | activity if present outside of V79 cells [2] | antiviral efficacy against HIV [3] | antiviral efficacy against influenza virus A and B [4] | antiviral efficacy against three species of adenovirus [5] | efficacy against SIV [6] | protection against gamma-radiation ([2]; correlated with intracellular levels) |
| --- | --- | --- | --- | --- | --- | --- | --- | --- |
| NCCCNCCSP(=O)(O)O [Amifostine] | no radioprotective effect | radioprotective activity was observed | did not show evidence of activity |  |  |  |  |  |
| NCCCNCCSSCC(N)C(=O)O (stereo not drawn) [WR-1065-Cys] |  |  | did not show evidence of activity |  |  |  |  |  |
| NCCCNCCS [WR-1065] | Activity also was observed |  | did not show evidence of activity | exhibits antiviral efficacy | exhibits antiviral efficacy | exhibits antiviral efficacy | demonstrated efficacy | significant protection |
| NCCCNCCSSCCNCCCN [WR-33278] |  |  | did not show evidence of activity |  |  |  |  |  |
